We go through five compounds from patent US20100210540A1, “USE OF THE PEPTIDE COMBINATION THYMOSIN BETA 4 AND DELTA SLEEP INDUCING PEPTIDE AS A THERAPEUTIC AGENT” (priority 2007, published 2010).

Test [1] relates to hepatitis B virus (HBV) ayw strain. Put plainly: HBV experimental assay system (secreted HBV DNA, TaqMan PCR). It counts as cell-based. The settings on record: 10 micrograms per ml; HepG2-2.2.15 cells; six days.
The test system of a further test is HCMV strain AD169. Put plainly: HCMV plaque formation assay in MRC-5 cells. It counts as cell-based. The settings on record: for inhibition of HCMV plaque formation as compared to the virus control experiment: 10 micrograms per ml, 7-10 days. The source says: Ganciclovir was used as positive control.
A further test relates to RAW 264.7 cells. The test is described as follows: Phagocytosis assay (Fluorescein-labeled Escherichia coli, flow cytometry). It counts as cell-based, Mouse. The settings on record: 10 micrograms per ml. On the procedure:
RAW 264.7 (Mouse leukaemic monocyte macrophage cell line) cells were obtained from ATCC and grown in RPMI 1640 medium containing 10% FBS. Cells were incubated in 12×75 mm tubes at 37° C. with test peptides—10 micrograms per ml—for 30 min prior to adding Fluorescein-labeled Escherichia coli bacteria as the agent to be ingested. After the cells were incubated for additional 60 min at 37° C. and allowed to ingest the Fluorescein-labeled Escherichia coli bacteria, cells were fixed with 1% paraformaldehyde. The samples were then analyzed by flow cytometry to determine the amount of phagocytosis as a function of brightness (the greater the phagocytic activity, the more fluorescence in the macrophage population). Data are reported as % positive and the mean fluorescence intensity (MFI) of positively stained cells.
A general note: A flow cytometer gives signals particle by particle.

Test [2] is described as follows: Th1/Th2 cytokine profiling assay: IL-2. The test is classed as cell-based, Balb/c mice. The settings on record: 10 micrograms per ml; Ovalbumin restimulation; 72 hours.
Description: (§1) The Balb/c mice (originated in 1923, it is a popular strain and is used in many different research disciplines. Also classified as an inbred from the production of 20 or more successive brother-sister matings, the Balb/c mouse is albino and small in size) were immunized on Days 1, 15, and 29 with Ovalbumin (Ovalbumin is the main protein found in egg white, commonly used to stimulate an immunological reaction in test animals) in PBS (5 micrograms/injection). On day 50, spleens of the mice were harvested (3 weeks after last boost with Ovalbumin). Cells were cultured (2×10^5/well in triplicate) and incubated with culture medium or test peptides—10 micrograms per ml—for 30 min. Thereafter, additional Ovalbumin was added to the cells at 10 micrograms/ml for in vitro restimulation of the cells. 72 hours later, cell supernatants were harvested and assayed using the Becton Dickinson Mouse Th1fTh2 Cytokine CBA Kit. This kit can be used to measure Interleukin-2 (IL-2), Interleukin-4 (IL-4), Interleukin-5 (IL-5), Interferon-γ (IFN-γ), and Tumor Necrosis Factor-α (TNF-α) protein levels in a single sample. The kit performance has been optimized for analysis of physiologically relevant concentrations (pg/ml levels) of specific cytokine proteins in tissue culture supernatants and serum samples.
In a further test the test system is Interleukin-4 (IL-4). Put plainly: Th1/Th2 cytokine profiling assay: IL-4. The test is classed as cell-based, Balb/c mice. The conditions noted are these: 10 micrograms per ml; Ovalbumin restimulation; 72 hours.
For the next test, the system named is Interleukin-5 (IL-5). Put plainly: Th1/Th2 cytokine profiling assay: IL-5. The conditions noted are these: 10 micrograms per ml; Ovalbumin restimulation; 72 hours. It counts as cell-based, Balb/c mice.
A further test relates to Interferon-γ (IFN-γ). Put plainly: Th1/Th2 cytokine profiling assay: IFN-γ. The test is classed as cell-based, Balb/c mice. The settings on record: 10 micrograms per ml; Ovalbumin restimulation; 72 hours.
For test [3], the system named is Tumor Necrosis Factor-α (TNF-α). The test is described as follows: Th1/Th2 cytokine profiling assay: TNF-α. The test is classed as cell-based, Balb/c mice. The settings on record: 10 micrograms per ml; Ovalbumin restimulation; 72 hours.
Description: as §1
The subject of the next test is HUVEC. The test is described as follows: Endothelial tube formation assay. The settings on record: 10 micrograms per ml, 20 hours. It counts as cell-based, human. The source says: Positive control was vehicle only.
For test [4], the system named is cyclic AMP generation in human peripheral blood mononuclear cells (PBMC). The test is described as follows: cAMP induction assay (ELISA). The test is classed as cell-based. The settings on record: 10 micrograms per ml; 10 min at 37° C. The source says:
Adenosine 3′,5′-cyclic monophosphate (cyclic AMP; cAMP) is one of the most important “second messengers” involved as a modulator of physiological processes. cAMP is also involved in regulating neuronal, glandular, cardiovascular, immune and other functions and actions in a regulatory way. For being a second messenger, cAMP has the following characteristics to work effectively: 1) Amplification—when a few peptide molecules signal the cell, it needs to respond with a signal that is strong enough to get a job done without repeated high levels of stimulation. 2) Control—eventually a response must be shut down, and there are instances when its necessary to respond a little or a lot—so control is needed. 3)—Specificity—when a peptide is utilized, a given cell should respond in a specific way. Not all cells will respond to this peptide and therefore they cannot have the same effect in all the cells. Elevated levels of cAMP in human cells are associated with the suppression of cell activation.
The cAMP kit was used as an immunoassay for the quantitative determination of cyclic AMP generation in human peripheral blood mononuclear cells (PBMC). […]; 50 micrograms per ml), or test peptides—10 micrograms per ml—were added. […]. NaOH was added to neutralize the samples. Plates were centrifuged for 15 min at 2500 rpm and the supernatants removed. […]
For orientation: ELISA stands for enzyme-linked immunosorbent assay.

Test [5] deals with Primary Human endothelial cells (HUVEC). The test is described as follows: Endothelial cell migration assay. It counts as cell-based. The settings on record: 10 micrograms per ml, 22 hours. How it is done:
Thereafter, designated concentration of testing peptides—10 micrograms per ml—was added in duplicate wells.

The test system of the next test is HIV-1III8. The test is described as follows: HIV-1 antiviral assay in CEM-SS cells (MTS readout).

Where no end group is shown, it is not given here.

Description for Interferon-γ (IFN-γ): as §1
Description for Interleukin-4 (IL-4): as §1
Description for Interleukin-5 (IL-5): as §1

Consider “Trp-Ala-Gly-Gly-Asp-Ala-Ser-Gly-Glu-OH (WAGGDASGE-OH) [Peptide 2]”, for which, in test [1], the “inhibition of HBV replication on tested liver cells” value is given as “no effect”. For the same compound, the “inhibition of HCMV plaque formation as compared to the virus control experiment” value with HCMV strain AD169 is reported as 4.4%. The “inhibitory effects on the phagocytic activity of murine macrophages” value in the test on RAW 264.7 cells is given as “no inhibitory effects”. The “production of IL-2 in murine spleen cells (induced by)” value in [2] is on record as 38.1%. For the same compound, the “production of IL-4 in murine spleen cells (induced by)” value with Interleukin-4 (IL-4) came to 70.6%. Further, the “production of IL-5 in murine spleen cells (change)” value in the test with Interleukin-5 (IL-5) is “did not significantly change”. Moreover, the “production of IFN-γ in murine spleen cells (decreased by)” value in the test with Interferon-γ (IFN-γ) was found to be 40.8%. For the same compound, the “production of TNF-alpha in murine spleen cells (change)” value in test [3] is recorded as “did not significantly change”. For the same compound, the “inhibition of the tube formation of human endothelial cells” value in the test with HUVEC came to 3%. The “cAMP formation in PBMC (induced by)” value in [4] is reported as “no effects”.
Consider `Nc1nc(O)c2ncn(COC(CO)CO)c2n1` [Ganciclovir, reference compound], for which the “antiviral activity of positive control compound” value with HCMV strain AD169 (positive control) is on record as “expected levels of antiviral activity”.
As to “Ac-Ser-Asp-Lys-Pro-Asp-Met-Ala-Glu-Ile-Glu-Lys-Phe-Asp-Lys-Ser-Lys-Leu-Lys-Lys-Thr-Glu-Thr-Gln-Glu-Lys-Asn-Pro-Leu-Pro-Ser-Lys-Glu-Thr-Ile-Glu-Gln-Glu-Lys-Gln-Ala-Gly-Glu-Ser-OH (SDKPDMAEIEKFDKSKLKKTETQEKNPLPSKETIEQEKQAGES; printed: Ser-Asp-Lys-Pro-Asp-Met-Ala-Glu-Ile-Glu-Lys-Phe-Asp-Lys-Ser-Lys-Leu-Lys-Lys-Thr-Glu-Thr-Gln-Glu-Lys-Asn-Pro-Leu-Pro-Ser-Lys-Glu-Thr-Ile-Glu-Gln-Glu-Lys-Gln-Ala-Gly-Glu-Ser-) [Peptide 1]”, in test [1], the “inhibition of HBV replication on tested liver cells” value is recorded as “no effect”. Moreover, the “inhibition of HCMV plaque formation as compared to the virus control experiment” value with HCMV strain AD169 was found to be 1.0%. In addition, the “phagocytosis induced, as compared to the control experiment” value in the test with RAW 264.7 cells (30 min preincubation, 60 min ingestion) was found to be 45.7%. In addition, the “production of IL-2 in murine spleen cells (induced by)” value in test [2] is recorded as “did not significantly change”. In the test on Interleukin-4 (IL-4), the “production of IL-4 in murine spleen cells (induced by)” value is 31.6%. The “production of IL-5 in murine spleen cells (change)” value with Interleukin-5 (IL-5) was “did not significantly change”. For the same compound, the “production of IFN-γ in murine spleen cells (decreased by)” value in the test with Interferon-γ (IFN-γ) is 52.7%. Also, in [3], the “production of TNF-alpha in murine spleen cells (change)” value is reported as “did not significantly change”. Also, the “inhibition of the migration of human endothelial cells” value in test [5] was 3%. Besides, the “inhibition of the tube formation of human endothelial cells” value with HUVEC stood at 23%. In addition, the “cAMP formation in PBMC (induced by)” value in test [4] is reported as 15.8%.
In the case of `CC(C)(C)NC(=O)[C@@H]1CN(Cc2cccnc2)CCN1C[C@@H](O)C[C@@H](Cc1ccccc1)C(=O)N[C@H]1c2ccccc2C[C@H]1O` [indinavir], the “antiviral activity of positive control compounds” value with HIV-1III8 is given as “expected levels of antiviral activity”.
On the same count and under the same terms, under `Cc1cn([C@H]2C[C@H](N=[N+]=[N-])[C@@H](CO)O2)c(=O)[nH]c1=O` [AZT] stands “expected levels of antiviral activity”.
